System: myocardiale Radiocalciumaufnahme
Assay: Cardioprotective effect in conscious rats: inhibition of isoprenaline-induced myocardial radiocalcium uptake (method of Arndts)
Type: in vivo, Ratten
Design: unit not given here
Details: oral administration (perorale Wirkstoffabgabe), dose inhibiting by 50 % the myocardial radiocalcium uptake caused by 30 mg/kg s.c. Isoprenalin
Description: Insbesondere weisen diese Substanzen eine deutliche cardioprotektive Wirkung auf, die wie folgt bestimmt wurde: • Bekanntlich ist der myocardiale Ca(2+)-Gehalt ein Maß für die hypoxische bzw. durch toxische Catecholamindosen hervorgerufene Herzschädigung (Higgins et al., Mol. Cell. Cardiol. 10, 427-438, 1984; Nakanishi et al., Am. J. Physiol. 242, 437-449, 1982; Fleckenstein, A. Vorträge der Erlanger Physiol. Tagung 1970, Edit. Keidel, Springer Verlag Berlin, Heidelberg, New York, 1971). Umgekehrt ist die Inhibition der hypoxischen oder Isoprenalin-bedingten myocardialen Calciumaufnahme ein Maß für die cardioprotektive Effektivität von Calciumantagonisten (Fleckenstein, s.o.), von Calmodulininhibitoren (Higgins) und anderen Pharmaka, z.B. Betaadrenolytika (Arndts, Arzneimittelforschung 25, 1279-1284, 1975). Die cardioprotektive Wirkung wurde an wachen Ratten nach subcutaner oder peroraler Wirkstoffabgabe anhand der von Arndts (s.o.) beschriebenen Methode festgestellt und die Wirkungsstärke der Testsubstanzen als Hso-Wert angegeben. Dieser Wert entspricht der Dosis, die die durch eine Gabe von 30 mg/kg s.c. Isoprenalin bedingte myocardiale Radiocalciumaufnahme zu 50 % hemmt.

Row | Compound | H50-Wert
1 | COc1cc2c(cc1OC)C(CC(=O)NN(C)C)=NCC2 [B] | 2.26
2 | CCCCC(C(=O)NCC(C)C)C1=NCCc2cc(OC)c(OC)cc21 (stereo not drawn) [C, α-Isobutylaminocarbonyl-1-pentyl-6,7-dimethoxy-3,4-dihydro-isochinolin] | 1.34
3 | CCCCC(C(=O)NC(C)C)C1=NCCc2cc(OC)c(OC)cc21 (stereo not drawn) [D] | 2.25
4 | CCCCC(C(=O)NCCc1ccccn1)C1=NCCc2cc(OC)c(OC)cc21 (stereo not drawn) [E] | 2.29
5 | CCCCC(C(=O)NC)C1=NCCc2cc(OC)c(OC)cc21 (stereo not drawn) [F] | 1.41
6 | CCCCC(C(=O)NCCOC)C1=NCCc2cc(OC)c(OC)cc21 (stereo not drawn) [G] | 2.23
7 | COc1cc2c(cc1OC)C1(CCCC1)CNC2=CC1=NCC2(CCCC2)c2cc(OC)c(OC)cc21 [Verbindung A] | 1.25
8 | CCCCC(C(=O)NCC(C)O)C1=NCCc2cc(OC)c(OC)cc21 (stereo not drawn) [Verbindung H] | 2.15

System: isolierten Rattenherzen
Assay: Cardioprotective effect on isolated rat hearts under ischaemia followed by reperfusion (duration of arrhythmia phase)
Design: species or system Ratten
Details: konz. 3,3 µg/ml; isolated rat heart, one hour ischaemia (flow 0.15 ml/min), then reperfusion
Description: Wird ein längere Zeit unter ischämischen Bedingungen gehaltenes, isoliertes Herz wieder normal perfundiert, so tritt keine sofortige Normalisierung der Herzfunktion ein. Es findet sich vielmehr eine vorübergehende Periode, die durch Kontraktur und Arrhytmien gekennzeichnet ist. Diese Arrhythmiephase ist durch Veränderungen von Funktion und Struktur der Myocardzelle mit intrazellulärer Calciumüberladung bedingt (Hess u. Manson, J. Mol. Cell. Cardiol. 16, 969, 1984). Cardioprotektiv wirksame Verbindungen wie Verapamil und Diltiazem verringern die Calciumüberladung und verbessern das Kontraktionsverhalten bei Reperfusion (Watts et al. Am. J. Physiol. 238, H 909, 1980; Meno et al. Am. J. Physiol. 247, H 380, 1984). Die cardioprotektive Wirkung wurde an isolierten Rattenherzen unter Ischämie und anschließender Reperfusion untersucht. Unter Kontrollbedingungen findet sich nach einstündiger Ischämie (Fluß 0.15 ml,min) eine Periode unregelmäßiger Herztätigkeit von 10-15 Minuten. Infusion von cardioprotektiven Verbindungen bewirkt eine signifikante Verkürzung dieser Periode.

Row | Compound | Verkürzung der Arrhythmie-phase von 11-13 min auf
9 | COc1cc2c(cc1OC)C(C(CCc1ccccc1)C(=O)NCCc1ccncc1)=NCC2 (stereo not drawn) [L] | 5,0 min
10 | COc1cc2c(cc1OC)C1(CCCC1)CNC2=CC1=NCC2(CCCC2)c2cc(OC)c(OC)cc21 [Verbindung A] | 4,0 min

Same assay, conditions: konz. 6,6 µg/ml; isolated rat heart, one hour ischaemia (flow 0.15 ml/min), then reperfusion

Row | Compound | Verkürzung der Arrhythmie-phase von 11-13 min auf
11 | CCCCC(C(=O)NC(C)CCCC(C)C)C1=NCCc2cc(OC)c(OC)cc21 (stereo not drawn) [K] | 3,1 min

Same assay, conditions: konz. 13,3 µg/ml; isolated rat heart, one hour ischaemia (flow 0.15 ml/min), then reperfusion

Row | Compound | Verkürzung der Arrhythmie-phase von 11-13 min auf
12 | COc1cc2c(cc1OC)C(CC(=O)N1CCOCC1)=NCC2 [Verbindung I] | 3,5 min

From patent EP0288048A2, “Benzo- and thieno-3,4-dihydropyridine derivates, processes for their preparation, and medicaments containing them” (BOEHRINGER INGELHEIM KG, priority 1987, dated 1988)
